Results on 2 molecules are retold here after PMC8464850, “Sulfonium Ligands of the α7 nAChR” (Molecules, 2021).

The structures appear in SMILES notation.

As usually defined, the EC50 is the midpoint of the concentration-response curve.

Experiment [1] concerns α4β2 subtypes formed with concatamers. Kind of experiment: Inhibition of ACh control peak-current responses of α4-containing nAChR formed with concatamers. The class given is cell-based, human. Conditions: 100 µM compound, Figure 7B. As for the experimental part:
Although none of the other sulfonium compounds activated neuronal heteromeric receptors, several of them produced inhibition of ACh-evoked responses. Shown in Figure 7A are concentration-response studies for the compounds that were active antagonists of α3β4 nAChR (Table 3). Some compounds were also tested as antagonists of α4β2 subtypes formed with concatamers (Figure 7B).
Figure 7 Inhibition of heteromeric nAChR by sulfonium compounds. (A) Inhibition of α3β4 100 µM ACh-evoked peak currents by the co-application of the sulfonium compounds. Data are the averaged of six to eight oocytes (±SEM). […]
(§1) Solutions were applied from 96-well plates via disposable tips. […] The responses were calculated as both peak current amplitudes and net charge, as previously described. Data were collected at 50 Hz, filtered at 20 Hz for α7 receptors or filtered at 5 Hz for heteromeric nAChR, and analyzed by Clampfit (Molecular Devices, San Jose, CA, USA) and Excel (Microsoft, Redmond, WA, USA). Data were expressed as means ± SEM from at least four oocytes for each experiment and plotted with Kaleidagraph 4.5.2 (Abelbeck Software, Reading, PA, USA). Multi-cell averages were calculated for comparisons of complex responses. Averages of the normalized data were calculated for each of the 10,322 points in each of the 206.44 s traces (acquired at 50 Hz), as well as the standard errors for those averages.

For experiment [2], the system named is neuronal heteromeric receptors. Kind of experiment: Activation of neuronal heteromeric nAChR (panel). The class given is cell-based, human. The note with it: all heteromeric subtypes tested.
Description: Concatamers were used in order to obtain heteromeric receptors with known subunit composition. The β2-6-α4 concatamer was co-expressed with monomeric α4, β2, or α5 to obtain receptors with the composition α4(3)β2(2), α4(2)β2(3), or α4(2)β2(2)α5, respectively. A concatamer of five linked subunits was used to obtain the β3α4 β2α6β2 receptors. The α3β4 receptors were formed from the co-expression of α3 and β4 subunit monomers at equal ratios. Note that the data were initially measured relative to internal ACh control responses for each oocyte (Methods). Responses were subsequently adjusted for the relative values of the ACh controls and the ACh maximum responses for each of the various subtypes, determined in previous experiments. […]
as §1, with “Averages of the normalized data were calculated for each of the 10,322 points in each of the 206.44 s traces (acquired at 50 Hz), as well as the standard errors for those averages.” left out

Another experiment deals with T1, human α7 receptors (Homo sapiens, UniProt P36544).
T1 construct: expressed in transfected cells; host or cells: Xenopus laevis oocytes (injected RNA)
Kind of experiment: Activation of human α7 receptors expressed in Xenopus oocytes, compounds applied alone (two-electrode voltage clamp, net charge). The class given is cell-based. The note with it: for ability to activate α7 when applied alone: 100 µM. As to the method: The sulfonium compounds (Figure 1) were evaluated for their ability to activate human α7 receptors expressed in Xenopus oocytes (Figure 2A). Responses were measured as net charge. […] The average net-charge response to 100 µM S1 was 47 ± 6% of the control responses to 60 µM ACh from the same cells.
Figure 2 Responses of α7 nAChR to sulfonium compounds. (A) Net-charge responses to the applications of the test compounds applied at 100 µM. Net charge was calculated as the integrated area of inward current over a 120 s interval following the 30 s-pre-application period used to establish an initial baseline. […] (B) Averaged net-charge responses (±SEM, n = 8) to applications of S1 across a range of concentrations. Responses were measured relative to preceding 60 µM ACh control responses and then adjusted for the difference between ACh controls and ACh maximum responses. See text for curve-fit values.
The human nAChR clones were obtained from Jon Lindstrom (University of Pennsylvania, Philadelphia, PA, USA). Mouse muscle subunit clones were obtained from Jim Boulter (Salk Institute, La Jolla, CA, USA) and Paul Gardner (Dartmouth, Hanover, NH, USA). The human resistance-to-cholinesterase 3 (RIC3) clone was obtained from Millet Treinin (Hebrew University, Jerusalem, Israel) and co-injected with α7 to improve the level and speed of α7 receptor expression without affecting the pharmacological properties of the receptors. Subsequent to linearization and purification of the plasmid DNAs, RNAs were prepared using the mMessage mMachine in vitro RNA transcription kit (Ambion, Austin, TX, USA).
Oocytes were surgically removed from mature female Xenopus laevis frogs (Nasco, Ft. Atkinson, WI, USA) as previously described. Frogs were maintained in the Animal Care Service facility of the University of Florida, and all procedures were approved by the University of Florida Institutional Animal Care and Use Committee (approval number 202002669).
Experiments were conducted using OpusXpress 6000A (Molecular Devices, Union City, CA, USA). Both the voltage and current electrodes were filled with 3 M KCl. Oocytes were voltage-clamped at −60 mV at room temperature (24 °C). The oocytes were bath-perfused with Ringer’s solution (115 mM NaCl, 2.5 mM KCl, 1.8 mM CaCl2, 10 mM HEPES, and 1 μM atropine, pH 7.2) at 2 mL/min for α7 receptors, or 4 mL/min for heteromeric nAChR. To evaluate the effects of experimental compounds, responses were compared to control ACh-evoked responses, defined as the average of two initial applications of ACh made before test applications. ACh control concentrations were 60 µM for α7 receptors; 100 µM for α4(3)β2(2) and α3β4 receptors; 30 µM for α4β2α6β2β3 and muscle-type (αβ1εδ) receptors; and 10 µM for α4(3)β2(2) and α4(2)β2(2)α5 receptors.
Solutions were applied from 96-well plates via disposable tips. Drug applications were 12 s in duration, followed by 181 s washout periods for α7 receptors, or 6 s in duration followed by 301 s washout periods for heteromeric nAChR. The responses were calculated as both peak current amplitudes and net charge, as previously described. Data were collected at 50 Hz, filtered at 20 Hz for α7 receptors or filtered at 5 Hz for heteromeric nAChR, and analyzed by Clampfit (Molecular Devices, San Jose, CA, USA) and Excel (Microsoft, Redmond, WA, USA). Data were expressed as means ± SEM from at least four oocytes for each experiment and plotted with Kaleidagraph 4.5.2 (Abelbeck Software, Reading, PA, USA). Multi-cell averages were calculated for comparisons of complex responses. Averages of the normalized data were calculated for each of the 10,322 points in each of the 206.44 s traces (acquired at 50 Hz), as well as the standard errors for those averages.

T1 sequence (P36544 23-502): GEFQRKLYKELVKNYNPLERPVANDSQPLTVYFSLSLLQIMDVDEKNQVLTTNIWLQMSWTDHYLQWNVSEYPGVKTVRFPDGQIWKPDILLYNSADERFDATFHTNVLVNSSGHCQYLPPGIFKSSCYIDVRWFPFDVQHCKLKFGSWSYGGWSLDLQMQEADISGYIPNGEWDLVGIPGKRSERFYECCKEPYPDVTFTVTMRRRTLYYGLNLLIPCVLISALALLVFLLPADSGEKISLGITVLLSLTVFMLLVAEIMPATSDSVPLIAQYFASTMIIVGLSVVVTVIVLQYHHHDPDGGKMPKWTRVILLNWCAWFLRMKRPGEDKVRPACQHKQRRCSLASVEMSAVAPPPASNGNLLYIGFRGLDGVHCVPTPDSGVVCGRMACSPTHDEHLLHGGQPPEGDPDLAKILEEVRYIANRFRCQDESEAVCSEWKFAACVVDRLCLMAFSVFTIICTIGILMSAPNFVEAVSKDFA

Consider `C[S+](C)c1cc([N+](=O)[O-])ccc1O.[Br-]` [Compound S10, (2-hydroxy-5-nitrophenyl)dimethylsulfonium bromide], for which the relative antagonist activity result in experiment [1] is recorded as “least”.
For the molecule `C[S+](C)C.[I-]` [Compound S1, trimethylsulfonium iodide], the “activation of neuronal heteromeric receptors” value in experiment [2] is “activates all the neuronal heteromeric receptors tested”. The “average net-charge response, % of the control responses to 60 µM ACh” value on human α7 receptors (100 µM compound applied alone, same cells) turned out to be 47 ± 6%. In addition, the “ability to activate α7 when applied alone” value at human α7 receptors (net charge) is “activated receptors”; on human α7 receptors (net charge, listed as trimethylsulfonium), “partial agonist”. Besides, on human α7 receptors (net charge, n = 8, normalized to ACh maximum, Hill fit), the Imax is reported as 84 ± 0.3 % ACh Imax. In addition, the EC50 at human α7 receptors (α7, Hill fit, Table 2, unit printed in text b9 only, read-out: EC50 (S1 Activation)) amounted to 98 ± 0.5 µM. Also, the “IMax (S1 Activation)” value on human α7 receptors (α7, relative to ACh maximum, Hill fit, Table 2) was 0.84 ± 0.01.
